SMILES strings stand for the structures.

For assay [1], the target named is Cereblon (CRBN) (Homo sapiens (Human), UniProt Q96SW2). Description: Isothermal titration calorimetry (ITC), Cereblon (CRBN). The class given is binding. As to conditions: for Kd: 20 μM protein titrated with 200 μM test compound, 20 mM HEPES pH 7.5, 150 mM NaCl, 0.5 mM TCEP, 2% DMSO, 25° C, single site model. The procedure:
(§1) All calorimetric experiments were carried out using an Affinity ITC from TA Instruments (New Castle, Del.) equipped with an auto sampler in a buffer containing 20 mM HEPES, pH 7.5, 150 mM NaCl, 0.5 mM TCEP, and 2% DMSO at 25° C. 20 μM protein solution containing PRPK or Cereblon (CRBN) in the calorimetric cell was titrated with 200 μM of a test compound solution using 2 μL injection in 200 seconds intervals using a stirring speed at 125 rpm. Resulting isotherm was fitted with a single site model to yield thermodynamic parameters of ΔH, ΔS, stoichiometry, and Kd using NanoAnalyze software (TA instruments).

Assay [2] deals with PRPK (Homo sapiens (Human), UniProt Q96S44). Description: Isothermal titration calorimetry (ITC), PRPK. The class given is binding. As to conditions: for Kd: 20 μM protein titrated with 200 μM test compound, 20 mM HEPES pH 7.5, 150 mM NaCl, 0.5 mM TCEP, 2% DMSO, 25° C, single site model; for PRPK binding Kd compared with pomalidomide: ITC, comparison in words with control Pomalidomide. The procedure: as §1
(In general: In ITC the heat of successive injections is recorded.)

Chain of Cereblon (CRBN) (Q96SW2 whole entry, species assumed): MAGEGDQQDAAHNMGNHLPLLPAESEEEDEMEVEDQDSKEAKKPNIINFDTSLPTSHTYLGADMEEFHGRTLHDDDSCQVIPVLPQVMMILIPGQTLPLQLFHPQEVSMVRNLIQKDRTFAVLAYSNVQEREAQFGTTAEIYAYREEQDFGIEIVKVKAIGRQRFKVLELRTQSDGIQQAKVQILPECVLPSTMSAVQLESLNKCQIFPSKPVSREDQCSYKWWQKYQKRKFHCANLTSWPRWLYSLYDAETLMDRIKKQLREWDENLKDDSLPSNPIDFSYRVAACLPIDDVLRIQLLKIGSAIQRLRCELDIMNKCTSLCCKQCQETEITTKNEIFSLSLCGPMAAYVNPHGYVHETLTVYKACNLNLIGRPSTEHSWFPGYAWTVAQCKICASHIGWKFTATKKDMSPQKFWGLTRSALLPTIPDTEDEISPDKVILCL
Chain of PRPK (Q96S44 whole entry): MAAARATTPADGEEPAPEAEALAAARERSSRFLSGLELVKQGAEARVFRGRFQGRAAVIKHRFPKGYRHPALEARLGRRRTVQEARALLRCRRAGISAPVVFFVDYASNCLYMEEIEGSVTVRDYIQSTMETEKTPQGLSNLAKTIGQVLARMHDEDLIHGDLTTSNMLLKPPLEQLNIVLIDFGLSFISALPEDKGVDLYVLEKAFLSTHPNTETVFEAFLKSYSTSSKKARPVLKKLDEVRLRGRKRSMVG

For the compound `C[C@@]1(N2C(=O)c3ccc(-c4cn[nH]c4)c(O)c3C2=O)CCC(=O)NC1=O` [Compound 22, (R)-4-hydroxy-2-(3-methyl-2,6-dioxopiperidin-3-yl)-5-(1H-pyrazol-4-yl)isoindoline-1,3-dione], the Kd in assay [1] and in assay [2] was more than 1000 µM throughout.
Take `C[C@@]1(N2C(=O)c3ccc(C(=O)O)cc3C2=O)CCC(=O)NC1=O` [Compound 12, (R)-2-(3-methyl-2,6-dioxopiperidin-3-yl)-1,3-dioxoisoindoline-5-carboxylic acid]: in assay [1], the Kd was more than 1000 µM and the “CRBN inhibition (conclusion in words from ITC)” value was “not CRBN inhibitors”. Also, in assay [2], the dissociation constant (Kd) came out at 0.28 ± 0.08 µM and the “PRPK binding Kd compared with pomalidomide” value is “lower than Pomalidomide”.
Regarding `O=C1CCC(N2C(=O)c3ccc(-c4cn[nH]c4)c(O)c3C2=O)C(=O)N1` (centres unmarked) [Compound 13, 2-(2,6-dioxopiperidin-3-yl)-4-hydroxy-5-(1H-pyrazol-4-yl)isoindoline-1,3-dione], in assay [1], the Kd worked out at 0.54 µM and the “CRBN inhibition (conclusion in words from ITC)” value is reported as “not CRBN inhibitors”. Also, in assay [2], the Kd was found to be 1.9 ± 1.7 µM and the “PRPK binding Kd compared with pomalidomide” value is listed as “lower than Pomalidomide”.
Taken in the same sequence, the figures for `C[C@@]1(N2C(=O)c3ccc(-c4n[nH]c(=S)o4)cc3C2=O)CCC(=O)NC1=O` [Compound 30, (R)-2-(3-methyl-2,6-dioxopiperidin-3-yl)-5-(5-thioxo-4,5-dihydro-1,3,4-oxadiazol-2-yl)isoindoline-1,3-dione] were more than 1000 µM, “not CRBN inhibitors”, 0.36 ± 0.07 µM and “lower than Pomalidomide”.

The Kd is the concentration at which binding is half-saturated. Read a high Kd as a looser complex.

Source of the values: patent US20230271966A1, “PRPK INHIBITORS” (Dana-Farber Cancer Institute, Inc., priority 2020, published 2023).
